The assay concerns the target T1, human CXCR2 (Homo sapiens, UniProt P25025).
T1 construct: expressed in transfected cells
T1 sequence (P25025 1-360): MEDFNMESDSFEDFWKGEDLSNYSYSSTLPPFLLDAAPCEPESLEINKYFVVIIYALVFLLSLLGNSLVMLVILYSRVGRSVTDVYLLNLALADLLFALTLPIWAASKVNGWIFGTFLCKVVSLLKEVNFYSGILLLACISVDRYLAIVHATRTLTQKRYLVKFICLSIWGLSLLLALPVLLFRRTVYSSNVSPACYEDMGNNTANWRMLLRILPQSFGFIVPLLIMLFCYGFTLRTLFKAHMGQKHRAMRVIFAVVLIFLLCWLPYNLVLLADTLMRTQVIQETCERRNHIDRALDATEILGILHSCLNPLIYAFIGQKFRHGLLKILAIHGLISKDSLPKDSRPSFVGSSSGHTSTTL
Nature of the assay: Potency (pIC50) - ligand binding assay, Alexa647 IL-8 displacement from CXCR2 membranes. The following applies: 50% reduction in specific Alexa647 IL-8 (1 nM) binding to HEK293 human CXCR2 membranes. From the text: Potency (pIC50)—Ligand Binding Assay
Human Embryonic Kidney 293 cells (HEK293 cells) from the American Type Culture Collection were transfected with human CXCR2 cDNA (RefSeqNM_001557), previously cloned into the eukaryotic expression vector pIRES-Neo2, (Clontech). Populations of Geneticin (Invitrogen)-resistant cells were selected for stable expression of CXCR2 and clones were generated by dilution cloning (0.3 cells/well) in 96-well tissue culture plates.
Cells of the highest expressing clone (Clone 6, identified by FACS analysis) were harvested, following 24 hour pre-treatment with 5 mM sodium butyrate, in 10 ml of ice-cold hypotonic buffer (20 mM HEPES, 1 mM EDTA, 0.1 mM DTT, 0.1 mM Phenyl Methyl Sulphonyl Fluoride and 0.1 mg/L Bacitracin, pH7.4) and left to swell for 10 min. Following centrifugation (200 g, 5 min, 4° C.), cells were resuspended in hypotonic buffer and membranes were prepared using a polytron tissue homogenizer (3×10 second treatments). […]
All assays were performed in black, 384-well plates (Greiner). […] Total binding of Alexa^647 IL-8 was determined in the absence of competing compound and non-specific binding of Alexa^647 IL-8 was determined in the presence of 0.3 μM 1-(4-chloro-2-hydroxy-3-sulfamoyl-phenyl)-3-(2,3-dichlorophenyl)urea. […]

As for `CC1CN(S(=O)(=O)Nc2cc(O[C@H](C)[C@@H](O)CO)nc(SCc3ccc(F)cc3)n2)C1` [Example 1, N-(6-((2R,3S)-3,4-Dihydroxybutan-2-yloxy)-2-(4-fluorobenzylthio)pyrimidin-4-yl)-3-methylazetidine-1-sulfonamide], the IC50 (as a rule, the concentration that gives 50% inhibition) is 3.98 nM.

The values are drawn from patent US9975881B2, “Compound” (ASTRAZENECA AB, priority 2011, dated 2018).
